# Results: paper PMC9598880, “Activity of a Novel Anti-Inflammatory Agent F-3,6′-dithiopomalidomide as a Treatment for Traumatic Brain Injury” (Biomedicines, 2022)
# Molecular target: T1, cereblon (Homo sapiens, UniProt Q96SW2)
# T1 construct: gene CRBN; CRBN/DDB1−CUL4A−Rbx1 complex (BPS Bioscience catalog no. 79770); with DDB1−CUL4A−Rbx1; BRD3
# Test: AlphaScreen bead-based cereblon/BRD3 binding assay (called FRET in the text)
# T1 sequence (Q96SW2 whole entry): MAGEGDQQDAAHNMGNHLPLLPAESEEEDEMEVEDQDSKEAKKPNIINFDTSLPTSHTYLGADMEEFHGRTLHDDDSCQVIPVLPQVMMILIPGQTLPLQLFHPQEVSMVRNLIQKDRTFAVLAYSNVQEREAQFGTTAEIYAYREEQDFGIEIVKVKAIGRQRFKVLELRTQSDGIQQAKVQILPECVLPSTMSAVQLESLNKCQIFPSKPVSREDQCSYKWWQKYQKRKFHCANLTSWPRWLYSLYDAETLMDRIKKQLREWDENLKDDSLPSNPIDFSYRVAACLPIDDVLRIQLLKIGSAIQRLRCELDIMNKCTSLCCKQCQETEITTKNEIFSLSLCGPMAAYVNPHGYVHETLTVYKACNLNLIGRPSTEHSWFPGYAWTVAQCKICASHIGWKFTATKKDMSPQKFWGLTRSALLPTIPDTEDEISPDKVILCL
# T1 sequence (Q16531 2-1140 partner): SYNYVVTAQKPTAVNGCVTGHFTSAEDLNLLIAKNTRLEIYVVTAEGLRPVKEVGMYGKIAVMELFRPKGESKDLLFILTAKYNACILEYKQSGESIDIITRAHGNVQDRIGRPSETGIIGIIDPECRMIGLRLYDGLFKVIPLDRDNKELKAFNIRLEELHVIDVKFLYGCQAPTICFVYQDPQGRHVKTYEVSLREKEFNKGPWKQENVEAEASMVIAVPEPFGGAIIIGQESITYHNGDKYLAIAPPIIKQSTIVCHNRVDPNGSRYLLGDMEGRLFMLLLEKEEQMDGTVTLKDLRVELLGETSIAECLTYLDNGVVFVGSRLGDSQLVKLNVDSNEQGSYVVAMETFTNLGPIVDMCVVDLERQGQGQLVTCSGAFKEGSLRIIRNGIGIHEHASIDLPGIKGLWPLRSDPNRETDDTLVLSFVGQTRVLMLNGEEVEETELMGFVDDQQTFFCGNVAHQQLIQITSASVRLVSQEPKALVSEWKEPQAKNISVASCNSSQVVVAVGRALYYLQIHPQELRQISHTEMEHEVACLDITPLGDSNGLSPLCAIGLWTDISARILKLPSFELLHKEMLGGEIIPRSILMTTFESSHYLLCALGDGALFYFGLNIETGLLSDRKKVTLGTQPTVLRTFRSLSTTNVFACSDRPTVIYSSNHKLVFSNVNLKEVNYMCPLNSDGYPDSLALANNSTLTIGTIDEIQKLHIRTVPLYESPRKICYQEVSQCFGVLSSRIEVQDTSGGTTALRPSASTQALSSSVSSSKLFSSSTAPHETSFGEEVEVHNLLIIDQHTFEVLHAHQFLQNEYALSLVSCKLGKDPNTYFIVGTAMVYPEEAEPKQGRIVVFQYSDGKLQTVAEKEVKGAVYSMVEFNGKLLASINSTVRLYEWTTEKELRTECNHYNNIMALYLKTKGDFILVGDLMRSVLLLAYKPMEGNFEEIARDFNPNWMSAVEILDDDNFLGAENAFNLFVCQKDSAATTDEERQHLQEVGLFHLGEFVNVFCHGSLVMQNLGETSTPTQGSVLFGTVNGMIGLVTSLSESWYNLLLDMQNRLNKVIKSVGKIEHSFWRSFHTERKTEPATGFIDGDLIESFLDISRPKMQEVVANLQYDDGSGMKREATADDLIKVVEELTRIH
# T1 sequence (Q13619 whole entry partner): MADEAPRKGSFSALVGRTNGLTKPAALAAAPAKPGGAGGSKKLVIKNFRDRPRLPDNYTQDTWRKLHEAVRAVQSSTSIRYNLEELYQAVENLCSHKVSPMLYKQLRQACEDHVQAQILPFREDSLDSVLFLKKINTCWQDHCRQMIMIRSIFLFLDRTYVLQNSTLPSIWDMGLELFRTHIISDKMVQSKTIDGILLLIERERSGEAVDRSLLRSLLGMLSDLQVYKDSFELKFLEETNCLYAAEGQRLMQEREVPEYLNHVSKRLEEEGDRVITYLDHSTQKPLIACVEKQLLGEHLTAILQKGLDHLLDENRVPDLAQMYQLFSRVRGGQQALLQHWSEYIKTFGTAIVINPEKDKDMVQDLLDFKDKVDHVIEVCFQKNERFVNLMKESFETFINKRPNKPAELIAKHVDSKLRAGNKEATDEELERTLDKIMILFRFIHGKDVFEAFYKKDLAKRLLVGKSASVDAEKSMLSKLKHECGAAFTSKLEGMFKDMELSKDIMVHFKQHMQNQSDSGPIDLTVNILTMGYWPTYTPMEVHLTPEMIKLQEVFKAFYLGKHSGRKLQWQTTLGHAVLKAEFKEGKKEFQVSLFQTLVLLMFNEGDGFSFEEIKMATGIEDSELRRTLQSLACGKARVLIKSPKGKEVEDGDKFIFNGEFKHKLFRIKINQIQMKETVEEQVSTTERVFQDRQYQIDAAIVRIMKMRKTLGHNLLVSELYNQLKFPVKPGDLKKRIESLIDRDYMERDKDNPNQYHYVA
# T1 sequence (P62877 whole entry partner): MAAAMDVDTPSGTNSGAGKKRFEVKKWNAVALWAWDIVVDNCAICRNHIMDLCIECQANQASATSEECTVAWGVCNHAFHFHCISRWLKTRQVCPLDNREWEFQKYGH
smiles,measurement,value
"Nc1ccc(F)c2c1C(=S)N(C1CCC(=S)NC1=O)C2=O (stereo not shown) [F-3,6′-DP]",IC50,2660 nM
